Tested on: Jagged1-induced signaling through Notch1
Assay: Co-culture Notch reporter (luciferase) assay, Jagged1-induced
Assay type: cell-based
Conditions: NIH-3T3 co-culture; antibody 0.4-50 μg/ml (Example 4) or 0.016-50 μg/ml (Example 5)
Procedure: To determine whether anti-Jagged antibodies can act as antagonists of Jagged-induced Notch signaling, co-culture experiments were performed essentially as described by Wu et al., Nature 464, 1052-1057 (15 April 2010). NIH-3T3 cells engineered to express Jagged1, as the Notch ligand, were co-cultured with NIH 3T3 cells that stably express Notch1 and that were transiently transfected to express a Notch-responsive TP-1 (12× CSL) firefly luciferase reporter and a constitutively expressed Renilla luciferase reporter (pRL-CMV, Promega).
Antibodies C and D, and their respective affinity-matured descendants, bind to both human and murine Jagged1, and human and murine Jagged2 (e.g., FIG. 10A). […] Signaling was induced by Jagged1 (FIG. 13B, dark gray columns) or by Jagged2 (FIG. 13B, light gray columns) and inhibition was determined as described in Example 4 using the antibodies at concentrations of 0.016-50 μg/ml. Controls included cultures that were not stimulated with ligand and not treated with antibody ([…], Untreated), not stimulated with ligand (FIG. 13B, No Stimulation or 3T3P), treated with 5-10 μg/ml isotype control antibody (FIG. 13B, agD or gD), stimulated with ligand but not treated with antibody (Stim/no AB or No Ab), treated with 5 μM of the gamma-secretase inhibitor DAPT or the DAPT vehicle control of DMSO.

## C[C@H](NC(=O)Cc1cc(F)cc(F)c1)C(=O)N[C@H]1N=C(c2ccccc2)c2ccccc2N(C)C1=O [Compound E]
  inhibition of Jagged1-induced Notch reporter expression: reduced to background levels

Reference: patent publication US11702479B2, “Anti-jagged antibodies and methods of use” (Genentech, Inc., priority 2012, dated 2023)
